The targets below were run with NC(=O)CCCCC1CCSS1 [lipoamide] (assay: thermal stability z-score vs DMSO; higher = more thermally stabilized by treatment). Conditions: HeLa; lipoamide concentration 100 µM; arsenate co-treatment: 1 mM arsenate 1 h.
Experimental: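 Cellular thermal proteome profiling in HeLa cells. Cells were treated with 100 µM lipoamide for 1 h, with or without 1 mM arsenate for a further 1 h, then heated to ten temperatures (37-66.3 °C), and soluble protein was quantified by TMT mass spectrometry relative to 0.1% DMSO controls. The thermal stability score (sum of log2 fold changes minus the abundance score) was transformed to a z-score; mean of n = 3 experiments.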
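Also: each temperature applied for 3 min, abundance score taken as mean log2 fold change at the two lowest temperatures, z-score obtained by mean subtraction and division by SD.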

UniProt Q01813, sequence (Q01813 whole entry): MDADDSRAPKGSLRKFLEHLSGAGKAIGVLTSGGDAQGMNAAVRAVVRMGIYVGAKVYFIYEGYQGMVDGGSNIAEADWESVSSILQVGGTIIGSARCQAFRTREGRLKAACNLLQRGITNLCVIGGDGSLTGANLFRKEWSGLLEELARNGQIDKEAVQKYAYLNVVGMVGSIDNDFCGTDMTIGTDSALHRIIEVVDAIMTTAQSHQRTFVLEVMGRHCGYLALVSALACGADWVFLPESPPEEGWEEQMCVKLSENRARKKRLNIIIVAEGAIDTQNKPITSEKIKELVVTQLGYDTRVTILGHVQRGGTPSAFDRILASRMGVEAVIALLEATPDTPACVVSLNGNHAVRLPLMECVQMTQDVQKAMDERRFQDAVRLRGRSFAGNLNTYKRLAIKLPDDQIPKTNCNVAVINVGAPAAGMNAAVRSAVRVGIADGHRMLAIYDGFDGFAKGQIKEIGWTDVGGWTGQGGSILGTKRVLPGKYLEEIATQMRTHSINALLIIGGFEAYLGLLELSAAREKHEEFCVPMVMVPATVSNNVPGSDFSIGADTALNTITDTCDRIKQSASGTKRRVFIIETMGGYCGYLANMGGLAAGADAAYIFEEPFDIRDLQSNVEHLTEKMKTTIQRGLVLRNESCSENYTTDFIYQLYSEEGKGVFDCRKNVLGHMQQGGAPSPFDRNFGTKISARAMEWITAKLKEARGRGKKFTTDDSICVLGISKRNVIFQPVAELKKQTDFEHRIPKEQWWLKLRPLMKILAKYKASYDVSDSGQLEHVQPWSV
UniProt Q7L0Y3, sequence (Q7L0Y3 whole entry): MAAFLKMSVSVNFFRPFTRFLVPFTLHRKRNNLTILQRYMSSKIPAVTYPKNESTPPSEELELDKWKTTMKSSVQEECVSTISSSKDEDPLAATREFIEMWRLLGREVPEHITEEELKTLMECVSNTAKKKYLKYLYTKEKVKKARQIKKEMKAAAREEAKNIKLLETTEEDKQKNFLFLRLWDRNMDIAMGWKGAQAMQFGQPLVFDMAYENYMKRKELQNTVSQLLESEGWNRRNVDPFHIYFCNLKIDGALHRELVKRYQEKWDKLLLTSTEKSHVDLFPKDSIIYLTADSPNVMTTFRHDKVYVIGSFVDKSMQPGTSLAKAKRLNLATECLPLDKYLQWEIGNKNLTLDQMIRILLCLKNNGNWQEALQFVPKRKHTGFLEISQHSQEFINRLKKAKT
UniProt P33176, sequence (P33176 whole entry): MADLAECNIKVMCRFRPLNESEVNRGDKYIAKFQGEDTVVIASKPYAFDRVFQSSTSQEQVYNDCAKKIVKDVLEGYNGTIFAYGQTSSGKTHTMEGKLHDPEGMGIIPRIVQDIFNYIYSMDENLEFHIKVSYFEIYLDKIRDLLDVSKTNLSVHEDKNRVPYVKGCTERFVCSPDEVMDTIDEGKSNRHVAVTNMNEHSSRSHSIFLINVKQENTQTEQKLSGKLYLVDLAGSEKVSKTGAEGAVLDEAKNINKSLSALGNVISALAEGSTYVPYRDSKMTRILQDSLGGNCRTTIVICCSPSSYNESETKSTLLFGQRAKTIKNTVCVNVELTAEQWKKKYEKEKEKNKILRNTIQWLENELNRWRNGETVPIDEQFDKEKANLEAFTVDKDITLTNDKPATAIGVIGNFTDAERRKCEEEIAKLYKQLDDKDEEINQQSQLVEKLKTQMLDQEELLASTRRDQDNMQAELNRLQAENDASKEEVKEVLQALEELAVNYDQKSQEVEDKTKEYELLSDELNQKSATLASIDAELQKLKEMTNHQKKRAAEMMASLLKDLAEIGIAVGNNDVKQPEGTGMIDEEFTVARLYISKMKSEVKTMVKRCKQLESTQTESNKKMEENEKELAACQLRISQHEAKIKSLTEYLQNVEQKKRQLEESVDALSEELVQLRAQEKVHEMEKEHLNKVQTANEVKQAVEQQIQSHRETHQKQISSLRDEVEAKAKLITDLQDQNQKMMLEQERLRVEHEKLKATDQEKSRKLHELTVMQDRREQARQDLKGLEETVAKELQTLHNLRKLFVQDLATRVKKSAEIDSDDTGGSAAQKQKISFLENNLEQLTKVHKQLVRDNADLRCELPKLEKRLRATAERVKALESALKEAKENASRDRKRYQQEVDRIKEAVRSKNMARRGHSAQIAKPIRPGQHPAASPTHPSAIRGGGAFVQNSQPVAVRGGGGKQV
UniProt O95685, sequence (O95685 whole entry): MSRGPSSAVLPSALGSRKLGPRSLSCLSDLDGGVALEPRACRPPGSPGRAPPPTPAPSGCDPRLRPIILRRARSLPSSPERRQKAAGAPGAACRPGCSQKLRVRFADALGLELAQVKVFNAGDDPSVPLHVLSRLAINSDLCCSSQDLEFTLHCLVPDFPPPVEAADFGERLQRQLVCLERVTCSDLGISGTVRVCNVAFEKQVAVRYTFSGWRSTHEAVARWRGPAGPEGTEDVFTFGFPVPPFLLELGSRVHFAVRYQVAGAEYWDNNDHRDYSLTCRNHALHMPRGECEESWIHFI
UniProt Q01658, sequence (Q01658 whole entry): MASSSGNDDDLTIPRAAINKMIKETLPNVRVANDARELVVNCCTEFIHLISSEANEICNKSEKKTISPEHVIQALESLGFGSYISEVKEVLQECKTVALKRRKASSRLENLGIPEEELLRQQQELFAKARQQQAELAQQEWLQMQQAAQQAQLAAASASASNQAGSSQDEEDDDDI
UniProt Q8IW45, sequence (Q8IW45 whole entry): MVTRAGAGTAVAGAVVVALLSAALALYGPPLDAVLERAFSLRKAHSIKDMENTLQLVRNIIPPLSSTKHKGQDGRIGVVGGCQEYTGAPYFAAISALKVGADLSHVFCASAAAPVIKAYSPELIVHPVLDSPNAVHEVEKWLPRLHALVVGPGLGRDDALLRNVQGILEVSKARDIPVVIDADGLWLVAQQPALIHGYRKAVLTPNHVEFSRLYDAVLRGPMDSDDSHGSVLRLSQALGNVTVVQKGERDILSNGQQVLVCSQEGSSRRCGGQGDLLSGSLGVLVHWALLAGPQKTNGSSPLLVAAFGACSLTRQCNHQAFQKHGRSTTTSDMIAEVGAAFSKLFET
UniProt O14732, sequence (O14732 whole entry): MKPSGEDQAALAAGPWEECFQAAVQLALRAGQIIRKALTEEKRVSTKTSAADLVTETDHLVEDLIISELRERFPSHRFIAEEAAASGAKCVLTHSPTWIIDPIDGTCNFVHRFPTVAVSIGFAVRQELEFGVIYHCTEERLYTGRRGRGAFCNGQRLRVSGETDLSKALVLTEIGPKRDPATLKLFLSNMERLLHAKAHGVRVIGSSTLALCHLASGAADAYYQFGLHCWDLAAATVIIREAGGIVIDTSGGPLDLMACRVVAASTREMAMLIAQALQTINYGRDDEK
UniProt Q8IXQ3, sequence (Q8IXQ3 whole entry): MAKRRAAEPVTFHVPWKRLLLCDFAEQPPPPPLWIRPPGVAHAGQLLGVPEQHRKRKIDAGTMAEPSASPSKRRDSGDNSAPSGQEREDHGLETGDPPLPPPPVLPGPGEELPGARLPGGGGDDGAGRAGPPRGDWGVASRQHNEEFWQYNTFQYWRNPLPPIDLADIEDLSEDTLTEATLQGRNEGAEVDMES
UniProt O60869, sequence (O60869 whole entry): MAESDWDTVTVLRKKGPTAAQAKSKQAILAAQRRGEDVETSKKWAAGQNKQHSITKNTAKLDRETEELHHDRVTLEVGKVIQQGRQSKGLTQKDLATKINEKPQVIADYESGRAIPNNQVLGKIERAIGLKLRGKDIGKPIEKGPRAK
UniProt P60468, sequence (P60468 whole entry): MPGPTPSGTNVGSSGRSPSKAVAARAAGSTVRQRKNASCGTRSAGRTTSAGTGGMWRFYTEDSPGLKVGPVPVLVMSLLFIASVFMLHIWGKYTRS
UniProt Q9H6T3, sequence (Q9H6T3 whole entry): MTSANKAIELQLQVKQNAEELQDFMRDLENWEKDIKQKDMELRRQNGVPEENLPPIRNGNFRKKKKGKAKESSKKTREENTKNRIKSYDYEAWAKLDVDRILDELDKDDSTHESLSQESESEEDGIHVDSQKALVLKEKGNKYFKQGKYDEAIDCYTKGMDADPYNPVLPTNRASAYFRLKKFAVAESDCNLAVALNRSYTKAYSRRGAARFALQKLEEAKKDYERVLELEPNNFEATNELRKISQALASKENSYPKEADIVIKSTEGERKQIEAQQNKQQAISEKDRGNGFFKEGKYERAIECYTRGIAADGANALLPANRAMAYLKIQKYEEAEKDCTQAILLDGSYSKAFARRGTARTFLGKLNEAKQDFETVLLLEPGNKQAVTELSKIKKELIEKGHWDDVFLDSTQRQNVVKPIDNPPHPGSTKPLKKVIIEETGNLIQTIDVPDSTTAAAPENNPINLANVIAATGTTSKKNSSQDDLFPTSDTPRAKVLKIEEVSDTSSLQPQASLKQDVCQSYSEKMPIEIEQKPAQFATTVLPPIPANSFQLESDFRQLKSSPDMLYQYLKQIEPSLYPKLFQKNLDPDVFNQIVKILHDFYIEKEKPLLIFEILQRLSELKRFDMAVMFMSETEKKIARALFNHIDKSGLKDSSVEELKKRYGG
UniProt Q8IYU8, sequence (Q8IYU8 whole entry): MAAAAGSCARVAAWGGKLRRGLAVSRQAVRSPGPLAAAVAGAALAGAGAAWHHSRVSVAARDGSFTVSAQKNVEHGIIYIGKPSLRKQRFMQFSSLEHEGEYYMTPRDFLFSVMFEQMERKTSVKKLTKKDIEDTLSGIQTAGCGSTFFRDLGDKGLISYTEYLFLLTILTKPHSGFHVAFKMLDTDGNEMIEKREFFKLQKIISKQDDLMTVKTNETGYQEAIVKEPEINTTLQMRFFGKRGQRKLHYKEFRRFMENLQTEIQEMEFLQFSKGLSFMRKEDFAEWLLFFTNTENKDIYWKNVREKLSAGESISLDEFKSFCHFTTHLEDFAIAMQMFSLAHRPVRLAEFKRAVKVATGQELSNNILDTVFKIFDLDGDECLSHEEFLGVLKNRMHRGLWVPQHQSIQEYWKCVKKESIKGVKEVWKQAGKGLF
UniProt Q9NZ45, sequence (Q9NZ45 whole entry): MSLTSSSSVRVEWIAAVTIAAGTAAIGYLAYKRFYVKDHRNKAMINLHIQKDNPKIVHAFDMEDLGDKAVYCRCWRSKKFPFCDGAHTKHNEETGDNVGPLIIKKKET

Target | thermal stability z-score
RPAP3 (UniProt Q9H6T3) | -0.367
RPL9 (UniProt P32969) | 0.762
UBA2 (UniProt Q9UBT2) | -0.378
HMOX1 (UniProt P09601) | -0.0402
MED1 (UniProt Q15648) | 0.948
PFKP (UniProt Q01813) | 0.365
KIF5B (UniProt P33176) | 0.397
C9ORF40 (UniProt Q8IXQ3) | -0.129
TSC22D4 (UniProt Q9Y3Q8) | -1.89
EDF1 (UniProt O60869) | 0.657
CISD1 (UniProt Q9NZ45) | 0.257
IMPA2 (UniProt O14732) | 0.737
SLC35E1 (UniProt Q96K37) | -2.03
SEC61B (UniProt P60468) | 0.911
DR1 (UniProt Q01658) | 0.466
TRMT10C (UniProt Q7L0Y3) | -0.602
RPL30 (UniProt P62888) | 0.771
RNF219 (UniProt Q5W0B1) | -0.038
PPP1R3D (UniProt O95685) | -0.601
COPS7B (UniProt Q9H9Q2) | -0.144
KANK2 (UniProt Q63ZY3) | -0.0369
SUPT5H (UniProt O00267) | 0.685
TRIO (UniProt O75962) | -0.939
CBX4 (UniProt O00257) | -0.406

Target | thermal stability z-score
FLVCR1 (UniProt Q9Y5Y0) | -0.393
GEMIN2 (UniProt O14893) | -0.139
VPS39 (UniProt Q96JC1) | -0.937
GK (UniProt P32189) | 0.371
BRF1 (UniProt Q92994) | -0.0333
HSD17B4 (UniProt P51659) | 0.258
ISCU (UniProt Q9H1K1) | 0.628
NAXD (UniProt Q8IW45) | -0.31
MICU2 (UniProt Q8IYU8) | -0.422
DCPS (UniProt Q96C86) | -0.92
RAB21 (UniProt Q9UL25) | 0.0174
YIPF4 (UniProt Q9BSR8) | 0.0431
HACL1 (UniProt Q9UJ83) | 0.259
HNRNPDL (UniProt O14979) | 0.895
EPN2 (UniProt O95208) | 1.13
RANBP10 (UniProt Q6VN20) | 0.521
RAD23A (UniProt P54725) | 0.0472
LRRC57 (UniProt Q8N9N7) | 0.252
BLOC1S4 (UniProt Q9NUP1) | 1.47
UBE2F (UniProt Q969M7) | -0.0267
ZFYVE9 (UniProt O95405) | -0.0978
LAMTOR5 (UniProt O43504) | -0.306
STX5 (UniProt Q13190) | 0.00395
UIMC1 (UniProt Q96RL1) | -0.168

Target | thermal stability z-score
NUMBL (UniProt Q9Y6R0) | 0.0444
PDPR (UniProt Q8NCN5) | 0.399
CDYL (UniProt Q9Y232) | 2.68
LYAR (UniProt Q9NX58) | -0.425
SPTLC1 (UniProt O15269) | -0.481
PHB2 (UniProt Q99623) | 0.27
MTG2 (UniProt Q9H4K7) | -0.0209
MKNK2 (UniProt Q9HBH9) | -0.569
SYVN1 (UniProt Q86TM6) | -2
SH2D4A (UniProt Q9H788) | 0.0871
FA2H (UniProt Q7L5A8) | -0.355
ETF1 (UniProt P62495) | 0.635
ADCK3 (UniProt Q8NI60) | -0.0263
PDSS1 (UniProt Q5T2R2) | 0.272
MOCS2 | 0.00471
RBPJ (UniProt Q06330) | 0.252
NMI (UniProt Q13287) | 1.24
SLC35D1 (UniProt Q9NTN3) | -2.29
SSX2IP (UniProt Q9Y2D8) | -0.271
C18ORF21 (UniProt Q32NC0) | -0.42
LRRC40 (UniProt Q9H9A6) | -0.119
PSMD1 (UniProt Q99460) | 0.651
HSPB11 (UniProt Q9Y547) | -0.309

Same assay, conditions: HeLa; lipoamide concentration 100 µM; arsenate co-treatment: none

Target | thermal stability z-score
RPAP3 (UniProt Q9H6T3) | -0.207
RPL9 (UniProt P32969) | 0.659
UBA2 (UniProt Q9UBT2) | -0.166
HMOX1 (UniProt P09601) | -0.011
MED1 (UniProt Q15648) | 0.662
PFKP (UniProt Q01813) | 0.542
KIF5B (UniProt P33176) | 0.256
C9ORF40 (UniProt Q8IXQ3) | 0.33
TSC22D4 (UniProt Q9Y3Q8) | -0.035
EDF1 (UniProt O60869) | 0.578
CISD1 (UniProt Q9NZ45) | 0.707
IMPA2 (UniProt O14732) | 0.182
SLC35E1 (UniProt Q96K37) | -1.92
SEC61B (UniProt P60468) | 0.44
DR1 (UniProt Q01658) | 0.257
TRMT10C (UniProt Q7L0Y3) | -0.191
RPL30 (UniProt P62888) | 0.183
RNF219 (UniProt Q5W0B1) | -0.0978

Target | thermal stability z-score
PPP1R3D (UniProt O95685) | -0.982
COPS7B (UniProt Q9H9Q2) | -0.241
KANK2 (UniProt Q63ZY3) | 0.0732
SUPT5H (UniProt O00267) | -0.0241
TRIO (UniProt O75962) | -0.335
CBX4 (UniProt O00257) | 0.212
FLVCR1 (UniProt Q9Y5Y0) | -0.367
GEMIN2 (UniProt O14893) | -0.0485
VPS39 (UniProt Q96JC1) | -0.6
GK (UniProt P32189) | 0.195
BRF1 (UniProt Q92994) | -0.111
HSD17B4 (UniProt P51659) | 0.497
ISCU (UniProt Q9H1K1) | 0.0375
NAXD (UniProt Q8IW45) | 0.472
MICU2 (UniProt Q8IYU8) | -0.315
DCPS (UniProt Q96C86) | -0.621
RAB21 (UniProt Q9UL25) | 0.118

From the supplement of paper PMC12463676, “Small-molecule dissolution of stress granules by redox modulation benefits ALS models” (Nature Chemical Biology, 2025)
